One molecule from US20210393547A1, “USE OF EMODIN IN TREATING RETINAL ISCHEMIA OR A DISEASE, CONDITION, OR DISORDER ASSOCIATED WITH RETINAL ISCHEMIA” (priority 2020, published 2021) can be followed below.

For one experiment, the system named is VEGF. In words: Western blot of ischemic retina, VEGF to β-actin ratio. It is filed as in vivo, rat. To be noted: n=6, mean±S.E. The method, then: Emodin was purchased from Sigma-Aldrich (E7881; 90%; storage at 2-8° C.; from Frangula bark; St. Louis, Mo., United States). Drug administration for different procedures, namely ERG, fluorogold RGC labelling, cresyl violet retinal staining and Western blot assays, were described in Tables 3 to 6. Vehicle or emodin (5 μL) was administered via an intravitreous injection route so that these agents were then able to be directly diffused to the target. Emodin was dissolved in vehicle (DMSO:distilled water=1:3). The defined final cellular concentrations of administered drug were 0.25 or 0.5 μM, which were achieved after 40 times dilution from the stock concentrations, namely 10 or 20 μM, based on an arbitrary definition of the vitreous volume as 200 μL. To test a wider range of dose-response, 4 μM of emodin was thus added in the animal experiments. […] Denatured proteins were then obtained using lysis buffer (mammalian protein extraction reagent; […]), the samples were then sonicated and quantified to give equivalent amounts of 30 μg/30 μl/well. […] Finally, the PVDF membranes were then developed using an enhanced chemiluminescent analysis system ([…]) and scanned using an imager (Amersham Imager; LifeSciences); the amount of each protein was quantified according to scanning densitometry.

Experiment [1] relates to retinal ischemia in Wistar rats. Nature of the experiment: Cresyl violet stained retinal thickness after retinal ischemia/reperfusion. In kind it is in vivo, rat. To be noted: n=10, mean±SE. Here is the method: Emodin was purchased from Sigma-Aldrich (E7881; 90%; storage at 2-8° C.; from Frangula bark; St. Louis, Mo., United States). Drug administration for different procedures, namely ERG, fluorogold RGC labelling, cresyl violet retinal staining and Western blot assays, were described in Tables 3 to 6. Vehicle or emodin (5 μL) was administered via an intravitreous injection route so that these agents were then able to be directly diffused to the target. Emodin was dissolved in vehicle (DMSO:distilled water=1:3). The defined final cellular concentrations of administered drug were 0.25 or 0.5 μM, which were achieved after 40 times dilution from the stock concentrations, namely 10 or 20 μM, based on an arbitrary definition of the vitreous volume as 200 μL. To test a wider range of dose-response, 4 μM of emodin was thus added in the animal experiments. The Vehicle+IR and Emo+IR groups (pre-ischemic administration of emodin 4, 10 or 20 μM) were subjected to following the experimental procedures; these were initial pre-ischemic intravitreous injection (vehicle or emodin), retinal ischemia induction 1 day later, and sacrifice of the animal on the following day to allow the various post-mortem procedures except ERG. In the post-ischemic treatment group, in order to decrease the number of animals used, the present invention only used a single emodin concentration of 20 μM. Furthermore, intravitreous emodin was given 1 day after initial retinal ischemia induction and animals were sacrificed the following day to allow the performance of various post-mortem procedures as mentioned above. The IOP procedure used raised the IOP and was designed to cause retinal ischemia in Wistar rats and simulate ischemic retinal disorders. The rats were anesthetized and constrained with a sterotaxic frame. A 30-gauge needle connected to an elevated saline bottle was attached to anterior chamber of the rat's eye. The pressure exerted by the saline inside the bottle was controlled to 120 mmHg. This procedure was conducted for 1 hour. Successful retinal ischemia induction was confirmed by observing that the whitening of the retina took place. Throughout the experiments, the animals were kept on heat mats to maintain their temperature. The sham procedure involved keeping the pressure in saline bottle 0 mmHg. After the aforementioned sacrifice of rats, the animals underwent intracardial perfusion with normal saline. The eyeballs were then enucleated, fixed with 4% paraformaldehyde for 1 day at 4° C., dehydrated with ethanol, embedded in paraffin (Tissue-Tek TEC 5; Sakura) and sectioned into 5 μm thickness slices. The sectioned samples were then stained with cresyl violet and examined using a light microscope (Leica). All sectioned retinal samples were photographed under the same magnification (Ilford Pan-F plus film, 50 ASA). The thickness of a retina was determined by sectioning retinal samples at the same distance (1.5 mm from the disc). To evaluate the degree of the injury caused by retinal ischemia, the whole retinal thickness [from the inner limiting membrane (ILM) to the retinal pigment epithelium (RPE) layer] and the inner retinal thickness [from the ILM to the inner nuclear layer (INL)] were measured. All the measurements were carried out by an expert who was unaware of the experimental conditions used to treat the samples.

The mark [2] stands for this setting: Emo10+IR: pre-ischemic intravitreous 10 μM emodin.
Where [3] appears, read: Emo20+IR: pre-ischemic intravitreous 20 μM emodin.
[4] abbreviates: IR+Emo20: post-ischemic intravitreous 20 μM emodin.

Structures are written as SMILES.

As for `Cc1cc(O)c2c(c1)C(=O)c1cc(O)cc(O)c1C2=O` [emodin, 6-methyl-1,3,8-trihydroxyanthraquinone], the “ratio of VEGF to β-actin protein level” value came to 3.99±2.86 with VEGF (Emo10+IR: pre-ischemic intravitreous 10 μM emodin, Sham normalized to 1, Vehicle+IR 7.67) and 1.23±0.44 in the experiment with VEGF (Emo20+IR: pre-ischemic intravitreous 20 μM emodin, P=0.03 vs Vehicle+IR, Sham normalized to 1). The inner retina thickness in experiment [1] (Emo4+IR: pre-ischemic intravitreous 4 μM emodin, Sham 79.90, Vehicle+IR 20.97) came out at 38.60±1.01 μm; in experiment [1] (setting [2]), 70.05±0.60 μm; in experiment [1] (setting [3]), 70.65±2.06 μm; in experiment [1] (setting [4]), 69.65±0.68 μm. Further, the whole retina thickness in experiment [1] (Emo4+IR: pre-ischemic intravitreous 4 μM emodin, Sham 186.50, Vehicle+IR 71.80) is 87.40±0.60 μm; in experiment [1] (setting [2]) it was 153.20±1.48 μm; in experiment [1] (setting [3]), 170.10±0.10 μm; in experiment [1] (setting [4]), 125.45±1.68 μm.
